Like-named read-outs stand apart in the source and are kept apart here.
Legend:
CYP2D6 = target: T1, CYP2D6 (Homo sapiens, UniProt P10635); test: Inhibition of CYP2D6 (dextromethorphan) activity in pooled human liver microsomes; type: in vitro ADME; details: substrate dextromethorphan 5 µM; pooled HLMs; read-out: IC50, P450 2D6
T1 construct: incubation mixtures containing pooled human liver microsomes (HLMs, XTreme 200, XenoTech); tissue XenoTech XTreme 200; host or cells: pooled human liver microsomes
Protocol: The inhibitory potential of the five biflavonoids on the metabolism of nine P450 probe substrates was evaluated using previously developed methods with minor modifications. Biflavonoids were dissolved in methanol. The final concentration of methanol in the incubation mixture was 1.0% (v/v). We used these P450 probe substrates: phenacetin for CYP1A2, coumarin for CYP2A6, bupropion for CYP2B6, amodiaquine for CYP2C8, diclofenac for CYP2C9, omeprazole for CYP2C19, dextromethorphan for CYP2D6, chlorzoxazone for CYP2E1 and midazolam for CYP3A (Table 1). The incubation mixtures containing pooled human liver microsomes (HLMs, XTreme 200, XenoTech), P450 probe substrates, and inhibitor (0~20 µM) were pre-incubated at 37 °C for 5 min. The concentration range of the inhibitor varied (0, 0.002, 0.005, 0.02, 0.05, and 0.2 µM for CYP2C8; 0, 0.02, 0.05, 0.2, 0.5, and 2 µM for CYP2C9; 0, 0.5, 2, 5, 10, and 20 µM for other P450 isoforms). After pre-incubation, a reduced nicotinamide adenine dinucleotide phosphate (NADPH) generation system containing 1 unit/ml G6PDH, 1.3 mM β- nicotinamide adenine dinucleotide phosphate (β- NADP^+), 3.3 mM MgCl2, and 3.3 mM G6P was added to initiate a reaction, and further incubated for 10 min at 37 °C. The reaction was stopped by adding 50 μL of ice-cold acetonitrile containing 7 nM trimipramine (internal standard, IS). After centrifugation at 18,000 g (5 min, 4 °C), aliquots of supernatants were analyzed by LC–MS/MS (Shimadzu LCMS 8060 system, Shimadzu, Kyoto, Japan). All microsomal incubations were conducted in triplicate.
All metabolites and the IS were separated on a Kinetex XB-C18 column (100 × 2.10 mm, 2.6 μm, 100 Å; Phenomenex, Torrance, CA, USA) and analyzed using a Shimadzu LCMS 8060 triple-quadrupole mass spectrometer coupled with a Nexera X2 ultra high-performance liquid chromatography system (Shimadzu, Kyoto, Japan) equipped with an electrospray ionization interface. The mobile phase consisted of 0.1% formic acid in water (A) and 0.1% formic acid in acetonitrile (B). The elution condition was set as 8% B (0–0.5 min), 8%→60% B (0.5–5 min), 60% B (5–6 min), 60%→8% B (6–6.1 min) and 8% B (6.1–9 min) for the analysis of metabolites of P450 probe substrates and set as 0%→40% B (0–1 min), 40%→50% B (1–5 min), 50%→0% B (5–5.1 min), and 0% B (5.1–8 min) for the analysis of metabolites of UGT probe substrates. The flow rate was 0.2 mL/min. Electrospray ionization was performed in positive-ion mode at 4000 V or in negative-ion mode at −3500 V. The optimum operating conditions were determined as follows: vaporizer temperature, 300 °C; capillary temperature, 350 °C; collision gas (argon) pressure, 1.5 mTorr. Quantitation was conducted in selected reaction monitoring (SRM) modes with the precursor-to-product ion transition for each metabolite (Table 1 and Table 2).
We analyzed the data with Shimadzu LabSolution LC–MS software. The IC50 values were calculated by WinNonlin software (Pharsight, Mountain View, CA, USA). The type of inhibition and the apparent kinetic parameters for inhibitory activity (Ki) were determined by following several criteria: visual inspection of Dixon plots, Lineweaver–Burk double reciprocal plots, and secondary plots of Lineweaver–Burk plots versus biflavonoid concentrations, the size of the sum of squares of the residuals, Akaike Information Criteria values, the S.E. and 95% confidence interval of the parameter estimates from the nonlinear regression analysis using the WinNonlin software. The models tested included competitive, competitive partial, noncompetitive, noncompetitive partial, uncompetitive, uncompetitive partial, and mixed-type inhibition.

CYP3A = CYP3A (Homo sapiens, UniProt P08684); test: Inhibition of CYP3A-catalyzed midazolam 1'-hydroxylation in pooled human liver microsomes; type: in vitro ADME
Protocol: The inhibitory potential of the five biflavonoids on the metabolism of nine P450 probe substrates was evaluated using previously developed methods with minor modifications. Biflavonoids were dissolved in methanol. The final concentration of methanol in the incubation mixture was 1.0% (v/v). We used these P450 probe substrates: phenacetin for CYP1A2, coumarin for CYP2A6, bupropion for CYP2B6, amodiaquine for CYP2C8, diclofenac for CYP2C9, omeprazole for CYP2C19, dextromethorphan for CYP2D6, chlorzoxazone for CYP2E1 and midazolam for CYP3A (Table 1). […] The reaction was stopped by adding 50 μL of ice-cold acetonitrile containing 7 nM trimipramine (internal standard, IS). After centrifugation at 18,000 g (5 min, 4 °C), aliquots of supernatants were analyzed by LC-MS/MS (Shimadzu LCMS 8060 system, Shimadzu, Kyoto, Japan). All microsomal incubations were conducted in triplicate. We used HLMs to determine the mechanisms and constants (Ki values) for […] A inhibition of CYP1A2, CYP2B6, CYP2C8, CYP2C9 and CYP3A. […] The substrates were used at concentrations approximately near to their respective Km values. […] The other conditions were the same as in the cytochrome P450 inhibition study. […] Phenomenex, Torrance, CA, USA) and analyzed using a Shimadzu LCMS 8060 triple-quadrupole mass spectrometer coupled with a Nexera X2 ultra high-performance liquid chromatography system (Shimadzu, Kyoto, Japan) equipped with an electrospray ionization interface. The mobile phase consisted of 0.1% formic acid in water (A) and 0.1% formic acid in acetonitrile (B). […] The flow rate was 0.2 mL/min. Electrospray ionization was performed in positive-ion mode at 4000 V or in negative-ion mode at -3500 V. […] Quantitation was conducted in selected reaction monitoring (SRM) modes with the precursor-to-product ion transition for each metabolite (Table 1 and Table 2). We analyzed the data with Shimadzu LabSolution LC-MS software. The IC50 values were calculated by WinNonlin software (Pharsight, Mountain View, CA, USA). The type of inhibition and the apparent kinetic parameters for inhibitory activity (Ki) were determined by following several criteria: visual inspection of Dixon plots, Lineweaver-Burk double reciprocal plots, and secondary plots of Lineweaver-Burk plots versus biflavonoid concentrations, the size of the sum of squares of the residuals, Akaike Information Criteria values, the S.E. and 95% confidence interval of the parameter estimates from the nonlinear regression analysis using the WinNonlin software. The models tested included competitive, competitive partial, noncompetitive, noncompetitive partial, uncompetitive, uncompetitive partial, and mixed-type inhibition.

[1] = human, pooled human liver microsomes, probe midazolam (5 µM), substrate midazolam 5 µM, pooled HLMs, read-out: IC50, P450 3A

Chain of CYP3A (P08684 2-503): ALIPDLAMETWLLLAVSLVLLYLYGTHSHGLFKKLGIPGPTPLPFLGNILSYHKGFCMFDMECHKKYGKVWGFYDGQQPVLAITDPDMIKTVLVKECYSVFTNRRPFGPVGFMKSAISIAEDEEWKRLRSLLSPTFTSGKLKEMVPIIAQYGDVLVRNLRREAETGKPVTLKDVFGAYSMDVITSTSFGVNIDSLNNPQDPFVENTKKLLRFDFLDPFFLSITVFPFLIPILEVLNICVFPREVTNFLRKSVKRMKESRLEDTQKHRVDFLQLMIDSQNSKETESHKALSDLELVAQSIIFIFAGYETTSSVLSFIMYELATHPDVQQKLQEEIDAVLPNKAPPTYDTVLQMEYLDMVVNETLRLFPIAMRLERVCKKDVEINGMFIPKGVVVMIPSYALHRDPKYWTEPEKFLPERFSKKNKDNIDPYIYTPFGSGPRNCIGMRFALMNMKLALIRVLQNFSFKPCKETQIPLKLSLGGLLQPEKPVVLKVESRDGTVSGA
T1 sequence (P10635 whole entry): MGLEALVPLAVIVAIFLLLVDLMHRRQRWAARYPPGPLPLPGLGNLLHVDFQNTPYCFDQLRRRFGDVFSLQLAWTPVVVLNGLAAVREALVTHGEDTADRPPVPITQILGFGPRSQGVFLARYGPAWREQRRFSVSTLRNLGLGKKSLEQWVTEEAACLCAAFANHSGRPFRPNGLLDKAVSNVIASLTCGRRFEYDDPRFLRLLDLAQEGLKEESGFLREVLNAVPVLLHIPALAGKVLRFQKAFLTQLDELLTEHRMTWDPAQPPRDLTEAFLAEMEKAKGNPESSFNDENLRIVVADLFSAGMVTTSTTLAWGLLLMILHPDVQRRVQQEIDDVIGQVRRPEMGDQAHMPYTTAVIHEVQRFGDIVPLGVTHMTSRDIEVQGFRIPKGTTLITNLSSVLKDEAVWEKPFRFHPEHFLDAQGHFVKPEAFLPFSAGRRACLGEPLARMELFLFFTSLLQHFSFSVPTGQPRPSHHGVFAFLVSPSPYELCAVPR

| SMILES | IC50 (CYP2D6) | IC50 at 10 min (CYP3A; [1]) | Mode of Inhibition, CYP3A midazolam (CYP3A; HLMs) | Ki at 10 min (CYP3A; human, pooled human liver microsomes, probe midazolam (0.5, 2, 5 μM), HLMs, average ± standard error, triplicate) | IC50 at 10 min (CYP3A; human, microsomes) |
| --- | --- | --- | --- | --- | --- |
| O=c1cc(-c2ccc(O)c(-c3c(O)cc(O)c4c(=O)cc(-c5ccc(O)cc5)oc34)c2)oc2cc(O)cc(O)c12 [amentoflavone] | 2600 nM |  |  |  | 1300 nM |
| O=c1cc(-c2ccc(O)cc2)oc2c(-c3c(O)cc(O)c4c(=O)cc(-c5ccc(O)cc5)oc34)c(O)cc(O)c12 [cupressuflavone] | 2700 nM | 1500 nM |  |  |  |
| CC(C)(O)c1ccccc1CC[C@@H](SCC1(CC(=O)O)CC1)c1cccc(/C=C/c2ccc3ccc(Cl)cc3n2)c1 [montelukast, reference compound] | > 50000 nM |  |  |  | > 50000 nM |
| O=c1cc(-c2ccc(O)c(-c3c(-c4ccc(O)cc4)oc4cc(O)cc(O)c4c3=O)c2)oc2cc(O)cc(O)c12 [taiwaniaflavone] | 3200 nM | 1200 nM |  |  |  |

Further lines, with some results ahead:

| IC50 (CYP2D6) | IC50 at 10 min (CYP3A; [1]) | Mode of Inhibition, CYP3A midazolam (CYP3A; HLMs) | Ki at 10 min (CYP3A; human, pooled human liver microsomes, probe midazolam (0.5, 2, 5 μM), HLMs, average ± standard error, triplicate) | SMILES | IC50 at 10 min (CYP3A; human, microsomes) |
| --- | --- | --- | --- | --- | --- |
| 2200 nM | 1200 nM |  |  | O=c1cc(-c2ccc(O)c(-c3c(O)cc4oc(-c5ccc(O)cc5)cc(=O)c4c3O)c2)oc2cc(O)cc(O)c12 [robustaflavone] |  |
| 10600 nM | 2700 nM | Noncompetitive | 4500 ± 500 nM | O=C1CC(c2cc(-c3c(O)ccc4c(=O)cc(-c5ccc(O)cc5)oc34)c(O)cc2O)Oc2cc(O)cc(O)c21 (centres unmarked) [selamariscina A] |  |

From publication PMC7238120, “Strong and Selective Inhibitory Effects of the Biflavonoid Selamariscina A against CYP2C8 and CYP2C9 Enzyme Activities in Human Liver Microsomes” (Pharmaceutics, 2020)
